Assays:
Format in all cases: physicochemical
[1] = Photostationary state distribution by 1H NMR integration; conditions: pD 6; for PSD E→Z (photostationary state distribution): irradiation at 254 nm; for PSD Z→E (photostationary state distribution): irradiation at >420 nm
Text: (§1) Photoisomerization studies were subsequently carried out in acidic medium (pH = pK a – 2) in order to assess the photoresponse of the protonated species. Under these conditions, the anticipated photoisomerization of the thermally stable E-P a–dH^+ species was investigated by UV–vis absorption spectroscopy under irradiation at 254 nm. […] It is noteworthy that the irradiation wavelength can be extended to 365 nm, yielding virtually the same observations as for 254 nm irradiation (see footnotes of Table ). Irradiation also produced clear NMR spectral changes that support the occurrence of the E→Z isomerization. In essence, the signals Hf–h of the phenyl moiety were only slightly affected, whereas those of the pyridinium and acylhydrazone fragments shifted markedly, consistent with the formation of an intramolecular hydrogen bond in the Z-P a–cH^+ species. The reverse Z→E transformation of the protonated forms P a–cH^+ was also achieved upon irradiation at λ > 420 nm, giving lower quantum yields and less favorable PSDs (Figures S145–S147, S149–154, S1).

[2] = Thermal Z-PH+ to E-PH+ back-isomerization kinetics
Text: as §1
5.5. Z-P a-cH+→E-P a-cH+ thermal back-isomerization kinetics.
Figure S155. Absorption spectrum variation during 48h at room temperature from the PSS reached for P aH·Cl (7µM, pH 6, Red) state during 48h. E-isomer absorption spectrum in green.
Even though the kinetics has not been fully completed, it can be observed that it occurs much more slowly than photochemical processes.
To obtain an estimation of P aH·Cl Z→E thermal half-live at room temperature, the Z →E thermal reversion kinetics were monitored starting from the 254nm photostationary state at different temperatures (47, 55 and 64 °C). By tracking the absorbance changes at 420 nm, an Arrhenius analysis was performed, allowing the determination of the activation energy (EA) and the estimation of the thermal half-life at 25 °C.

[3] = Photoisomerization kinetics and quantum yields of the protonated forms (UV-vis); conditions: for k E-PH+ to Z-PH+ photoisomerization: pH 6 (pH 5 for P bH·Cl); for Φ Z→E photoisomerization quantum yield: irradiation at 440 nm
Text: as §1
5. Isomerization Photochemical Data.
5.1. E-P a-cH+→Z-P a-cH+ photoisomerization kinetics.
(§2) Figure S138. Left: variations in the absorption spectrum of P aH·Cl (20.6 µM, pH = 6) upon irradiation at 254 nm; the absorption spectrum of the E-form is shown in red; the photostationary state is in blue. Right: Kinetics (monitored at 320 nm) for the E-P aH+ to Z-P aH+ photoisomerization (20.6 µM) upon irradiation at 254 nm (I 0 = 1.37 × 10 –7 mol/s); k = 1.55 × 10 –2 […]
as §2, with “S139.” for “S138.”, “(17.5” for “(20.6”, “365” for “254”, “400” for “320”, “2.6” for “1.37”, “6.4” for “1.55”
Figure S140. Left: variations in the absorption spectrum of P bH·Cl (7.9 µM, pH = 5) upon […]
state is in blue. Right: Kinetics (monitored at 370 nm) for the E-P bH+ to Z-P bH+ photoisomerization (7.9 µM) upon irradiation at 254 nm (I 0 = 1.41 × 10 –7 mol/s); k = 4.91 × 10 –2 […]
Figure S141. Left: variations in the absorption spectrum of P bH·Cl (10 µM, pH = 5) upon […]
state is in blue. Right: Kinetics (monitored at 420 nm) for the E-P bH+ to Z-P bH+ photoisomerization (10 µM) upon irradiation at 365 nm (I 0 = 2.0 × 10 –7 mol/s); k = 3.0 × 10 –2 s–1.
Figure S142. Left: variations in the absorption spectrum of P cH·Cl (9 µM, pH = 6) upon […]
state is in blue. Right: Kinetics (monitored at 377 nm) of the E-P cH+ to Z-P cH+ photoisomerization […]
Figure S143. Left: variations in the absorption spectrum of P cH·Cl (10 µM, pH = 6) upon […]
state is in blue. Right: Kinetics (monitored at 410 nm) of the E-P cH+ to Z-P cH+ photoisomerization

[4] = irradiation at 254 nm (I0 1.37–1.41 × 10–7 mol/s)
[5] = irradiation at 254 nm, pH 6, error ± 20%
[6] = irradiation at 365 nm (I0 2.0–2.6 × 10–7 mol/s)

Row | PSD E→Z (photostationary state distribution) [1] | PSD Z→E (photostationary state distribution) [1] | Φ E→Z photoisomerization quantum yield [3, 5] | Φ E→Z photoisomerization quantum yield ([3]; irradiation at 365 nm) | Φ Z→E photoisomerization quantum yield ([3]; pH 6, error ± 20%) | E→Z photoisomerization of the protonated form (UV-vis changes) ([3]; irradiation at 254 nm, acidic medium pH = pKa – 2) | SMILES | k Z→E unimolecular rate constant, thermal back-isomerization ([2]; heating to 60 °C, pD 6) | k E-PH+ to Z-PH+ photoisomerization [3, 4] | k E-PH+ to Z-PH+ photoisomerization [3, 6] | k Z→E unimolecular rate constant, thermal back-isomerization ([2]; heating to 70 °C, pD 6) | k Z→E unimolecular rate constant, thermal back-isomerization ([2]; heating to 70 °C, pD 5)
1 | 93% Z | 67% E | 0.20 | 0.22 | 0.001 |  | C[n+]1ccc(NN=CC(=O)c2ccccc2)cc1 [P aH^+] | 4.1 10^–4 s^–1 | 1.55 10^–2 s^–1 | 6.4 10^–2 s^–1 |  | 
2 |  |  |  |  |  | no detectable changes | C[n+]1ccc(-c2ccc(NN=CC(=O)c3ccccc3)cc2)cc1 [P dH^+] |  |  |  |  | 
3 | 98% Z | 55% E | 0.34 | 0.34 | 0.008 |  | O=C(C=NNc1cc[n+](-c2ccccc2)cc1)c1ccccc1 [P cH^+] |  | 4.90 10^–2 s^–1 | 2.0 10^–2 s^–1 | 2.4 10^–4 s^–1 | 
4 | 93% Z | 57% E | 0.38 | 0.35 | 0.002 |  | C[n+]1ccc(NN=CC(=O)c2ccccc2)c2ccccc21 [P bH^+] |  | 4.91 10^–2 s^–1 | 3.0 10^–2 s^–1 |  | 9.8 10^–4 s^–1

Reference: publication PMC13185115, “Photovermellogens: Minimalistic Pyridinium-Based Acylhydrazones with Photoswitchable Basicity for Operation in Aqueous Media” (The Journal of Organic Chemistry, 2026)
